The data set is described as follows: Motesanib plasma pharmacokinetics (LC-MS/MS). The format is in vivo, human. The following applies: for Cmax / AUC / Tmax: human, plasma; for Cmax / AUC: po; for AUC: time 0 to 24 hours; for Tmax: listed as 'Mean'. Here is the method: Motesanib PK was assessed by comparing week 1 versus week 4 or 5 (motesanib without and with trebananib, respectively). Serum samples for the evaluation of minimum and maximum observed trebananib concentrations in the plasma were collected immediately before dosing on day 1 of weeks 2, 3, 4, 5, 6, 8, and every 8 weeks thereafter until 4 weeks after the last dose of study treatment. In addition, intensive sampling was conducted at the end of infusion, and 6, 24, 48, and 96 hours following dosing on day 1 of weeks 4 or 5. The samples were analysed for trebananib concentrations employing a validated enzyme-linked immunosorbent assay.
For motesanib, postdose samples were taken at 0.5, 1, 4, 6, and 24 hours during weeks 1 and 5 (without and with trebananib coadministration, respectively). Motesanib plasma concentrations were assessed with a validated liquid chromatography/mass spectrometry (LC-MS/MS) method at Cedra Corporation (Austin, TX).

The mark [1] stands for this setting: 75 mg, motesanib 75 mg oral QD without trebananib, mean.
[2] abbreviates: 125 mg, motesanib 125 mg oral QD without trebananib, mean.
Setting [3] is: motesanib 75 mg oral QD with trebananib 3 mg kg^−1, mean.
Where [4] appears, read: motesanib 125 mg oral QD with trebananib 3 mg kg^−1, mean.

Each structure is given as a SMILES string.

This note sets out measurements from publication PMC4294348 (Oncotarget, 2014).

As for `CC1(C)CNc2cc(NC(=O)c3cccnc3NCc3ccncc3)ccc21` [Motesanib], the Cmax under setting [1] was found to be 466 ng/mL, the concentration under setting [2] peaked (Cmax) at 559 ng/mL, the highest level under setting [3] (Cmax) was 507 ng/mL and the peak level under setting [4] (Cmax) was 541 ng/mL. For the same compound, the exposure (AUC) was found to be 2580 ng·h/mL under setting [1], 3130 ng·h/mL under setting [2], 3180 ng·h/mL under setting [3] and 3920 ng·h/mL under setting [4]. Also, the Tmax was found to be 1 h (motesanib 75 mg oral QD with trebananib 3 mg kg^−1), 1.1 h (motesanib 75 mg oral QD without trebananib) and 1 h (motesanib 125 mg oral QD without trebananib). Also, the “Effect of trebananib on motesanib PK” value (motesanib 75 mg or 125 mg with trebananib 3 mg kg^−1) is on record as “did not appear to be affected”. Moreover, the CL (motesanib 75 mg oral QD without trebananib, mean) worked out at 0.348 mL/min/kg.

Broadly, the Cmax is the peak of the concentration-time curve. One may read the AUC as concentration integrated over time. Read a high AUC as high exposure. The Tmax is the time at which the peak concentration occurs.
